These results are taken from article PMC11167338, “Exploring the impact of trifluoromethyl (–CF3) functional group on the anti-cancer activity of isoxazole-based molecules: design, synthesis, biological evaluation and molecular docking analysis” (RSC Advances, 2024).

What is called IC50 is the concentration that inhibits the measured activity by half. Read a low IC50 as higher potency.

The test system of experiment [1] is 4T1. Kind of experiment: MTT anti-proliferative assay on 4T1. The class given is cell-based, mouse. The procedure:
(§1) All synthesized molecules were tested for their anticancer activity using the MTT assay protocol against the murine mammary carcinoma cell line (4T1), the human breast cancer (MCF-7), and the prostatic small cell carcinoma (PC-3). These compounds were then assessed for their IC50 determination at various concentrations. According to this finding, all synthesized compounds have the ability to inhibit the proliferation of a variety of cancer cell lines. […] It is more biased for MCF-7 cells over other cancer cells tested. Further, we contemplated conducting additional research to assess their anti-cancer effectiveness and mechanism (Fig. 3).
(§2) The mouse triple-negative breast cancer cell line (4T1), a human luminal A breast cancer cell line (MCF-7), a human prostate cancer cell line (PC-3), and a normal human embryonic kidney cell line (HEK-293) were procured from the National Center for Cell Science (NCCS, Pune, India). Dulbecco's Modified Eagle Medium (DMEM) (Himedia Laboratories Pvt Ltd, Mumbai, India) was used to cultivate MCF-7, 4T1, PC-3, and HEK-293 cells. All the mentioned cell lines were cultured in Dulbecco's Modified Eagle Medium (DMEM) supplemented with 10% heat-inactivated fetal bovine serum (Himedia Laboratories Pvt Ltd, Mumbai, India) and 1% antibiotic (Pen strep: A001), Himedia Laboratories Pvt Ltd, Mumbai, India. Cells were grown in a humidified environment with 5% CO2 at 37 °C. The experiment was performed using the yellow dye MTT [3-(4,5-dimethylthiazol-2-yl)-2, 5-diphenyltetrazolium bromide].
(§3) The MTT assay protocol was used to determine the IC50 values of the final compounds against different types of cancer cell lines and their selectivity over normal human cell lines. Dilutions of various concentrations were made from the compounds' DMSO stock solutions in the appropriate media. With a control solution of less than 1% DMSO in the appropriate media, dilutions from 200 μM to 0.781 μM concentrations were prepared using the serial dilution method. Cells were subcultured in their respective complete media according to the ATCC protocol before being seeded on a sterile 96-well plate with around 100 μL per well and a cell density of about 1 × 10^4 cells per well and incubated overnight. The medium was aspirated the following day, and adherent cells were treated with the respective concentrations 200 μM to 0.781 μM. The cells were then cultured for 48 hours in presence of compounds in the growth medium. The medium was aspirated post-treatment, and 100 μL of a 5 mg mL^−1 MTT solution in phenol red-free media was added. This mixture was then incubated for around 3 hours to check for the production of formazan crystals. The MTT solution was withdrawn, and 150 μL of DMSO was added to the wells to dissolve the generated crystals. The absorbance was measured at 570 nm and 650 nm. The percent cell viability was calculated for the IC50 values using GraphPad Prism™ version 8.0.1, and the results were shown as a dose–response curve.
In general terms: Tetrazolium assays rely on reduction of a dye to a coloured formazan, in cell work by metabolically active cells.

Experiment [2] relates to MCF-7 cells. Kind of experiment: Annexin-V/FITC-PI apoptosis assay (flow cytometry). Conditions: MCF-7, 48 h, at in vitro IC50. The experiment is classed as cell-based, human. The procedure: Several studies have reported that anticancer drug molecules employ their cytotoxicity induced cell death via apoptotic pathways. […] These findings imply that the programmed cell death mechanism generated by the lead compound 2g causes considerable apoptosis in cancer cells.
In MCF-7 cells, an apoptosis assay was done using a TACs/Annexin V kit from Biolegend, USA. MCF-7 cells were seeded with a density of 5.0 × 10^4 cells per well in a flat-bottomed 12-well plate and allowed overnight for attachment. Following media aspiration, 48 hours of treatment with compound 2g and BG-45 at their in vitro IC50 values in MCF-7 cells were performed in triplicate. The cells were then trypsinized after being rinsed twice with ice-cold PBS. The trypsinized cells were then collected, centrifuged, and the obtained cell pellet was washed with ice-cold PBS before being resuspended in 100 μL of freshly prepared Annexin V reagent, which included 10 μL of 10× binding buffer, 1 μL of FITC, 10 μL of PI, and made up to 100 μL with double distilled water. Following a 30 minutes dark incubation period, these samples were diluted to 500 μL using 400 μL of 1× binding buffer. Following incubation, the samples were examined using flow cytometry (BDAria™ III, BD biosciences).

Experiment [3] concerns MCF-7. The experiment in a line: MTT anti-proliferative assay on MCF-7. The class given is cell-based, human. The conditions noted are these: for IC50: MTT, 48 hours treatment, mean ± SD (n = 2). The procedure: as §1, §2, §3

Regarding `COc1ccc(-c2noc(-c3cccs3)c2C(F)(F)F)cc1OC` [Compound 2g, 3-(3,4-dimethoxyphenyl)-5-(thiophen-2-yl)-4-(trifluoromethyl)isoxazole], the IC50 was determined as 8.75 ± 0.09 µM in experiment [1] (Mus musculus, 4T1, MTT, 48 hours treatment, mean ± SD (n = 2)); 2.64 µM in experiment [3] (Homo sapiens, MCF7, 48 h); 2.63 ± 0.15 µM in experiment [3]. Moreover, the “selectivity for other cancer cell lines over HEK-293” value in experiment [1] (first value, fits 4T1 by ratio of Table 1 IC50) stood at 9.2 fold. Further, the “total apoptotic percentage (Q2 and Q4)” value in experiment [2] turned out to be 55.3 ± 0.9%. Besides, in experiment [3] (MCF-7 IC50 compared), the “times more active than non-trifluoromethylated analogue 14” value was roughly 8 times. For the same molecule, the “selectivity for MCF-7 cells over HEK-293” value in experiment [3] (ratio of IC50 values) is listed as 30.8 fold.
